# In ChEMBL document CHEMBL2331089, “Characterization, bioinformatic analysis and dithiocarbamate inhibition studies of two new α-carbonic anhydrases, CAH1 and CAH2, from the fruit fly Drosophila melanogaster” (Bioorg Med Chem, 2013):
# Structures can show the parent of a compound that is named as a salt.
# Columns and labels:
# Carbonic anhydrase 1 = biological target: T1, Carbonic anhydrase 1 (Drosophila melanogaster, UniProt Q9V396); assay: Inhibition of Drosophila melanogaster recombinant carbonic anhydrase-1 expressed in Escherichia coli BL21 (DE3) preincubated for 15 mins by CO2 hydration stopped-flow assay
# T1 sequence (Q9V396 whole entry): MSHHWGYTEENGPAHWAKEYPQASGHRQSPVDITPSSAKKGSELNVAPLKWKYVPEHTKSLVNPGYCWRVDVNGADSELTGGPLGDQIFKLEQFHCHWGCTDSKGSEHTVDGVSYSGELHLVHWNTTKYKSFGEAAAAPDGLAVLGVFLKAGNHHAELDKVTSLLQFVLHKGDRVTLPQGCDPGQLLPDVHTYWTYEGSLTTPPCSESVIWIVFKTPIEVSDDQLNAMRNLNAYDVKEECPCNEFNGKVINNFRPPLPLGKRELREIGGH
# [1] = biological target: T2, Carbonic anhydrase 2, isoform A (Drosophila melanogaster, UniProt Q9VTU8); assay: Inhibition of Drosophila melanogaster recombinant carbonic anhydrase-2 expressed in Escherichia coli BL21 (DE3) preincubated for 15 mins by CO2 hydration stopped-flow assay
# T2 sequence (Q9VTU8 whole entry): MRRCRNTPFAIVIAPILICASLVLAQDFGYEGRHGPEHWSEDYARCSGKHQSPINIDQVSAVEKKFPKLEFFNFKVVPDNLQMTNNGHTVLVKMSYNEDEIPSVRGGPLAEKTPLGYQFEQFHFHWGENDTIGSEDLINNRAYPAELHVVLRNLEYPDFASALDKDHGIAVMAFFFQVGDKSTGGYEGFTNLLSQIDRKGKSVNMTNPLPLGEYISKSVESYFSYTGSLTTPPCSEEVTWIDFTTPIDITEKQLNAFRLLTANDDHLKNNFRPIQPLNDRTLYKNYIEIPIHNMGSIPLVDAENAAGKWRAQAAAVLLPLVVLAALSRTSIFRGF
# [2] = Inhibition of Drosophila melanogaster recombinant beat carbonic anhydrase expressed in Escherichia coli BL21 (DE3) preincubated for 15 mins by CO2 hydration stopped-flow assay
Compound,Ki (Carbonic anhydrase 1) [nM],Ki [1] [nM],Ki [2] [nM]
O=C(O)[C@@H]1CCCN1C(=S)S,1.4,13.6,
CCCCN(CC)C(=S)S [ETHYLBUTYLCARBAMODITHIOATE SODIUM SALT],10.5,21.9,
CN(Cc1ccccc1)C(=S)S [SODIUM BENZYL(METHYL)CARBAMODITHIOATE],50.2,12.4,
NCCCn1ccnc1.S=C(S)NCCCn1ccnc1,0.9,24.1,
S=C(S)NCCN1CCCCC1,57.1,26.7,
CN1CCN(NC(=S)S)CC1,0.9,13.8,
CCCN(CCC)C(=S)S [DIPROPYLCARBAMODITHIOATE SODIUM SALT],23.4,3.9,
CCCCN(CCCC)C(=S)S [DIBUTYLCARBAMODITHIOATE SODIUM SALT],17.1,0.5,
CCN(CC)C(=S)S [DITIOCARB SODIUM],2350,654,
S=C(S)NCCN(CCNC(=S)S)CNC(=S)S,134,1.5,
S=C(S)Nc1ccccc1 [TRIETHYLAMMONIUM PHENYLCARBAMODITHIOATE],21.4,33.9,
CN(C)C(=S)S [SODIUM DIMETHYLCARBAMODITHIOATE],3460,769,
CN(C(=S)S)c1ccccc1 [SODIUM METHYL(PHENYL)CARBAMODITHIOATE],67.1,5.9,
S=C(S)N1CCCC1,135,4.7,
OCCN(CCO)C(=S)S,3.2,134,
CC(=O)Nc1nnc(S(N)(=O)=O)s1 [ACETAZOLAMIDE],,,49
CC(C)CN(CC(C)C)C(=S)S [DIISOBUTYLCARBODITHIOIC ACID SODIUM SALT],20.2,0.9,
S=C(S)NCc1ccccc1 [SODIUM BENZYLCARBAMODITHIOATE],0.8,213,
S=C(S)Nc1cccs1,0.5,3.9,
CCC(C)NC(=S)S (racemic),325,0.9,
S=C(S)N1CCN(C(=S)S)CC1 [PIPERAZINECARBAMODITHIOATE DISODIUM SALT],0.9,21.6,
CCCCCCN(CCCCCC)C(=S)S [DIHEXYLCARBAMODITHIOATE SODIUM SALT],1.4,3.8,
S=C(S)NN1CCOCC1 [POTASSIUM MORPHOLINOCARBAMODITHIOATE],13.1,20.7,
S=C(S)NCc1ccncc1,35.1,58.8,
S=C(S)N1CCOCC1 [MORPHOLINECARBAMODITHIOATE SODIUM SALT],13.8,0.8,
O=C(O)CNC(=S)S,123,76.5,
S=C(S)NCCN1CCOCC1,12.1,10.4,
